In EP0429304A2, “Pyridone-carboxylic acid derivatives and their use as veterinary medicines” (SHIONOGI SEIYAKU KABUSHIKI KAISHA trading under the name of …, priority 1989, dated 1991):
Where a name gives a salt, the structure may show the parent alone. Read-outs that look alike come from different tables or passages of the source.

Columns and labels:
[1] = system: Pasteurella piscicida (P.pis) No. 2; assay: In vitro sensitivity test; format: cell-based; details: 25°C, 40 to 48 hours
Description: (§1) Survey of the sensitivity of the compound (I) to various strains of microorganisms was performed by a liquid dilution method […] an agar dilution method, in which the bacteria used were of animal origin and included the following strains (15 strains out of 11 bacteria): Chicken-origin strain: Mycoplasma gallisepticum (MG), Mycoplasma synoviae (MS), Hemophilus paragallinarum (H.pg) and Escherichia coli (E.coli); Pig-origin strain: Mycoplasma hyopneumoniae (Mh), Hemophilus pleuropneumonia (H.pp) and Bordetella bronchiseptica (B.br); Fish-origin strain: Pasteurella piscicida (P.pis) and Streptococcus sp (Str.sp); others: Escherichia coli (E. coli), Salmonella typhimurium (S.typhi) and Staphylococcus aureus (S.au).
(§2) Of these bacteria, the strains belonging to MG, MS and Mh were cultured at 37°C for 7 days by a liquid dilution method, of which the culture medium comprised: 12 % horse-serum added "PPLO" (agar manufactured by Difco) medium for MG; 12 % pig-serum, 0.01 % βNAD (nicotinamide adenine dinucleotide) added Frey medium for MS; 0.5 % lactoalbumin added Hank's solution, 10 % horse-serum, 0.5 % yeast extract (25 %) for Mh, and the agar dilution method was applied to the strains belonging to H.pg, H.pp, S.typhi, E.coli, S.au and B.br. Specifically, the H.pg strain was cultured in a 5 % chicken-serum added chicken bouillon medium and the H.pp strain was cultured in a heart infusion agar added with 10 % sheep defibered blood and 0.05 % βNAD. In case of the H.pg and P.pp strains, observation was made after cultivation at 37°C for 20 hours under 10 % CO₂. Mueller Hinton agar (Difco) was used for the strains belonging to S.typhi, E.coli, S.au and B.br, and observation was made after cultivation at 37°C for 20 to 24 hours. P.pis and Str.sp, both being of fish-origin, were respectively cultured at 25°C for 40 to 48 hours in a 1.5 % NaCl added heart infusion agar and in a sensitive disk medium.

[2] = system: Streptococcus sp (Str.sp) SNO6119; assay: In vitro sensitivity test; format: cell-based; details: 25°C, 40 to 48 hours
Description: as §1, §2

[3] = system: H.pp (otherwise called Actinobacillus pleuropneumoniae) strain M-1; assay: Experimental H.pp infection to pig, through injection; format: in vivo; details: injection to thigh muscle one time, Dose 5 mg/kg; dissection 6 days after inoculation
Description: In these experiments, the compound (I) was applied to the designated animals by (1) oral administration, (2) incorporation into baits and (3) intramuscular injection, the details of which are explained below.
(3) Preparation of the MG infected fowls was performed in the same manner as in (1) above. Infection of H.pp (otherwise called Actinobacillus pleuropneumoniae) to cause pleuropneumonia in pig was performed by inoculating 5 ml of a fresh cultured strain (i.e. M-1) of H.pp to each nasopharyngeal of some 45 days pigs, each weighing 4 to 9 kg (4 to 5 pigs/group), followed by injection of the test compounds to each thigh muscle at a designated volume one time. Pigs were dissected 6 days after the inoculation. The evaluation of the antimicrobial activity was made by observation of the pneumonia symptomes in air sacs, number of dead body and degree of nodosity in air sacks on dissection.

[4] = system: Hemophilus pleuropneumonia (H.pp) M-1; assay: In vitro sensitivity test (agar dilution method); format: cell-based; details: 37°C, 20 hours, 10 % CO₂
Description: as §1, §2

[5] = system: Escherichia coli (E.coli) JC-2; assay: In vitro sensitivity test (agar dilution method); format: cell-based; details: 37°C, 20 to 24 hours
Description: as §1, §2

[6] = system: Salmonella typhimurium (S.typhi) 13311; assay: In vitro sensitivity test (agar dilution method); format: cell-based; details: 37°C, 20 to 24 hours
Description: as §1, §2

[7] = system: Staphylococcus aureus (S.au) 209P; assay: In vitro sensitivity test (agar dilution method); format: cell-based; details: 37°C, 20 to 24 hours
Description: as §1, §2

TS-resistant MG = assay: Experimental MG infection to chicken, through bait; format: in vivo; details: 9-days chicken; for Number of infected fowl/Number of fowl tested: 6.6 x 10³ CFU/fowl, dissection 6th day after inoculation
[8] = system: Mycoplasma hyopneumoniae (Mh) ST-11; assay: In vitro sensitivity test (liquid dilution method); format: cell-based; details: 37°C, 7 days
Description: as §1, §2

[9] = system: Mycoplasma gallisepticum (MG) S6; assay: In vitro sensitivity test (liquid dilution method); format: cell-based; details: 37°C, 7 days
Description: as §1, §2

[10] = system: TS-resistant strain of MG; format: in vivo, chicken; details: for Number of infected fowl/Number of fowl tested: 3.5 x 10³ CFU/fowl; for Infectious index Left air sack + / Infectious index Left air sack ++ / Infectious index Left air sack +++ / Infectious index Left air sack - / Infectious index Right air sack + / Infectious index Right air sack ++ / Infectious index Right air sack +++ / Infectious index Right air sack -: count of fowl
[11] = system: Mycoplasma synoviae (MS) 1853; assay: In vitro sensitivity test (liquid dilution method); format: cell-based; details: 37°C, 7 days
Description: as §1, §2

[12] = system: Mycoplasma synoviae (MS) F10-2as; assay: In vitro sensitivity test (liquid dilution method); format: cell-based; details: 37°C, 7 days
Description: as §1, §2

[13] = system: Mycoplasma gallisepticum (MG) T-7-T, TS-resistant strain isolated from the field; assay: In vitro sensitivity test (liquid dilution method); format: cell-based; details: 37°C, 7 days
Description: as §1, §2

[14] = oral 100 mg/kg, 9-days chicken, 1.7 x 10³ CFU/fowl
[15] = oral 100 mg/kg, 9-days chicken, 2.2 x 10³ CFU/fowl
[16] = oral 100 mg/kg, 10-days chicken, 1.2 x 10³ CFU/fowl
[17] = oral 100 mg/kg, 10-days chicken, 3.0 x 10³ CFU/fowl
[18] = oral 200 mg/kg, 9-days chicken, 1.7 x 10³ CFU/fowl
[19] = oral 200 mg/kg, 9-days chicken, 2.2 x 10³ CFU/fowl
[20] = oral 200 mg/kg, 10-days chicken, 1.2 x 10³ CFU/fowl
[21] = oral 200 mg/kg, 10-days chicken, 3.0 x 10³ CFU/fowl
[22] = count of fowl, bait 880 ppm/Day, 1.8 x 10³ CFU/fowl

CCNCC12CCCC1CN(c1c(F)cc3c(=O)c(C(=O)O)cn(CC)c3c1F)C2.Cl (stereo not shown) [I-23]
In vitro Sensitivity Test P.pis No. 2 [1]: 0.78 µg/mL
In vitro Sensitivity Test Str.sp SNO6119 [2]: 0.39 µg/mL
Number of pig having nodi/Number of pig tested [3]: 2/4
In vitro Sensitivity Test H.pp M-1 [4]: 0.78 µg/mL
In vitro Sensitivity Test E.coli JC-2 [5]: 0.78 µg/mL
In vitro Sensitivity Test S.typhi 13311 [6]: 1.56 µg/mL
In vitro Sensitivity Test S.au 209P [7]: 0.1 µg/mL
Number of infected fowl/Number of fowl tested (TS-resistant MG; bait 31.3 ppm/Day): 5/7
Number of infected fowl/Number of fowl tested (TS-resistant MG; bait 62.5 ppm/Day): 0/7
Number of infected fowl/Number of fowl tested (TS-resistant MG; bait 125 ppm/Day): 0/7
In vitro Sensitivity Test Mh ST-11 [8]: 0.78 µg/mL
In vitro Sensitivity Test MG S6 [9]: 0.0125 µg/mL
Number of infected fowl/Number of fowl tested ([10]; oral 1.56 mg/kg, 9-days chicken): 5/5
Number of infected fowl/Number of fowl tested ([10]; oral 3.13 mg/kg, 9-days chicken): 5/5
Number of infected fowl/Number of fowl tested ([10]; oral 6.25 mg/kg, 9-days chicken): 0/5

C[C@H]1c2cccc(O)c2C(=O)C2=C(O)[C@]3(O)C(=O)C(C(N)=O)=C(O)[C@@H](N(C)C)[C@@H]3[C@@H](O)[C@@H]21 [DOXY, doxycycline, reference compound]
In vitro Sensitivity Test H.pp M-1 [4]: 0.39 µg/mL
In vitro Sensitivity Test E.coli JC-2 [5]: 0.39 µg/mL
In vitro Sensitivity Test S.typhi 13311 [6]: 0.1 µg/mL
In vitro Sensitivity Test S.au 209P [7]: 0.1 µg/mL
In vitro Sensitivity Test MS 1853 [11]: 0.1 µg/mL
In vitro Sensitivity Test MS F10-2as [12]: 0.39 µg/ml
In vitro Sensitivity Test MG S6 [9]: 0.2 µg/mL
In vitro Sensitivity Test MG T-7-T [13]: 0.2 µg/mL
Infectious index Left air sack + [10, 14]: 0
Infectious index Left air sack ++ [10, 14]: 0
Infectious index Left air sack +++ [10, 14]: 0
Infectious index Left air sack - [10, 14]: 5
Infectious index Right air sack + [10, 14]: 0
Infectious index Right air sack ++ [10, 14]: 1
Infectious index Right air sack +++ [10, 14]: 0
Infectious index Right air sack - [10, 14]: 4
Infectious index Left air sack + [10, 15]: 0
Infectious index Left air sack ++ [10, 15]: 0
Infectious index Left air sack +++ [10, 15]: 0
Infectious index Left air sack - [10, 15]: 5
Infectious index Right air sack + [10, 15]: 0
Infectious index Right air sack ++ [10, 15]: 1
Infectious index Right air sack +++ [10, 15]: 0
Infectious index Right air sack - [10, 15]: 4
Infectious index Left air sack + [10, 16]: 0
Infectious index Left air sack ++ [10, 16]: 0
Infectious index Left air sack +++ [10, 16]: 0
Infectious index Left air sack - [10, 16]: 5
Infectious index Right air sack + [10, 16]: 0
Infectious index Right air sack ++ [10, 16]: 1
Infectious index Right air sack +++ [10, 16]: 0
Infectious index Right air sack - [10, 16]: 4
Infectious index Left air sack + [10, 17]: 0
Infectious index Left air sack ++ [10, 17]: 0
Infectious index Left air sack +++ [10, 17]: 0
Infectious index Left air sack - [10, 17]: 5
Infectious index Right air sack + [10, 17]: 0
Infectious index Right air sack ++ [10, 17]: 1
Infectious index Right air sack +++ [10, 17]: 0
Infectious index Right air sack - [10, 17]: 4
Infectious index Left air sack + [10, 18]: 1
Infectious index Left air sack ++ [10, 18]: 0
Infectious index Left air sack +++ [10, 18]: 0
Infectious index Left air sack - [10, 18]: 4
Infectious index Right air sack + [10, 18]: 0
Infectious index Right air sack ++ [10, 18]: 1
Infectious index Right air sack +++ [10, 18]: 0
Infectious index Right air sack - [10, 18]: 4
Infectious index Left air sack + [10, 19]: 1
Infectious index Left air sack ++ [10, 19]: 0
Infectious index Left air sack +++ [10, 19]: 0
Infectious index Left air sack - [10, 19]: 4
Infectious index Right air sack + [10, 19]: 0
Infectious index Right air sack ++ [10, 19]: 1
Infectious index Right air sack +++ [10, 19]: 0
Infectious index Right air sack - [10, 19]: 4
Infectious index Left air sack + [10, 20]: 1
Infectious index Left air sack ++ [10, 20]: 0
Infectious index Left air sack +++ [10, 20]: 0
Infectious index Left air sack - [10, 20]: 4
Infectious index Right air sack + [10, 20]: 0
Infectious index Right air sack ++ [10, 20]: 1
Infectious index Right air sack +++ [10, 20]: 0
Infectious index Right air sack - [10, 20]: 4
Infectious index Left air sack + [10, 21]: 1
Infectious index Left air sack ++ [10, 21]: 0
Infectious index Left air sack +++ [10, 21]: 0
Infectious index Left air sack - [10, 21]: 4
Infectious index Right air sack + [10, 21]: 0
Infectious index Right air sack ++ [10, 21]: 1
Infectious index Right air sack +++ [10, 21]: 0
Infectious index Right air sack - [10, 21]: 4
Number of fowl having air sack lesions [10, 14]: 1
Number of fowl having air sack lesions [10, 15]: 1
Number of fowl having air sack lesions [10, 16]: 1
Number of fowl having air sack lesions [10, 17]: 1
Number of fowl having air sack lesions [10, 18]: 1
Number of fowl having air sack lesions [10, 19]: 1
Number of fowl having air sack lesions [10, 20]: 1
Number of fowl having air sack lesions [10, 21]: 5

CN(C)[C@@H]1C(O)=C(C(N)=O)C(=O)[C@@]2(O)C(O)=C3C(=O)c4c(O)ccc(Cl)c4[C@@](C)(O)[C@H]3C[C@@H]12 [CTC, chlorotetracycline hydrochloride, reference compound]
In vitro Sensitivity Test E.coli JC-2 [5]: 0.39 µg/mL
In vitro Sensitivity Test S.typhi 13311 [6]: 0.1 µg/mL
In vitro Sensitivity Test S.au 209P [7]: 0.1 µg/mL
Number of fowl having air sack lesions (TS-resistant MG; bait 880 ppm/Day, 1.8 x 10³ CFU/fowl): 4
Infectious index Left air sack + (TS-resistant MG; [22]): 0
Infectious index Left air sack ++ (TS-resistant MG; [22]): 0
Infectious index Left air sack +++ (TS-resistant MG; [22]): 0
Infectious index Left air sack - (TS-resistant MG; [22]): 5
Infectious index Right air sack + (TS-resistant MG; [22]): 3
Infectious index Right air sack ++ (TS-resistant MG; [22]): 1
Infectious index Right air sack +++ (TS-resistant MG; [22]): 0
Infectious index Right air sack - (TS-resistant MG; [22]): 1
In vitro Sensitivity Test MS 1853 [11]: 0.05 µg/mL
In vitro Sensitivity Test MS F10-2as [12]: 0.39 µg/ml
In vitro Sensitivity Test Mh ST-11 [8]: 1.56 µg/mL
In vitro Sensitivity Test MG S6 [9]: 12.5 µg/mL
In vitro Sensitivity Test MG T-7-T [13]: 6.25 µg/mL
